# In patent US20010033888A1, “Crystalline trehalose dihydrate, its preparation and uses” (KABUSHIK KAISHA HAYASHIBARA SEIBUTS KAGAKU KENKYUJO, priority 1998, published 2001):
# “And” between values parts separate entries of the source, which are not always exact repeats. Identical values can stand only once.
# What was measured:
# Format in all cases: physicochemical
# [1] = Hygroscopicity / solidification of the crystal products; settings: dried crystal product; dihydrate
# [2] = Intrusion disruptive strength by rheometer (needle about 3 mm in diameter); settings: stage elevated at 6 cm/min, three specimens each, strength when needle ruptures the crystal
# Method: As a representative polyhedral crystalline trehalose dihydrate having the c axis of about 10 mm, obtained by the methods in the later described Examples A-1 and A-2, three specimens with a tetradodecahedral crystalline structure were used and examined for the crystallinity by powdery X-ray diffraction analysis and the intrusion disruptive strength by rheometer. The crystallinity was determined by pulverizing a specimen and applying the Ruland method in Acta Crystallographica, Vol. 14, p. 1,180 (1961) using “GEIGERFLEX RAD-IIB”, an X-ray diffraction analyzer using Cuka ray commercialized by Rigaku Corporation, Tokyo, Japan, based on the powdery X-ray diffraction intensity. Using “FUDOH RHEO METER NRM-2010J-CW”, a rheometer commercialized by Rheotech Co., Ltd., Tokyo, Japan; and a needle, about 3 mm in diameter, as an adaptor, the intrusion disruptive strength was determined by placing a polyhedral crystal on a specimen stage, elevating the stage to the direction of the needle at a rate of 6 cm/min, and measuring the strength (kg) when the needle intrudes into and ruptures the polyhedral crystal. As a control, commercially available crystal sugar with a size equivalent to those of the specimens was examined similarly as above.
# [3] = Crystallinity by powdery X-ray diffraction analysis (Ruland method); settings: pulverized specimen, three specimens each, c axis about 10 mm, tetradodecahedral crystal
# Method: The crystallinity was determined by pulverizing a specimen and applying the Ruland method in Acta Crystallographica, Vol. 14, p. […] As a control, commercially available crystal sugar with a size equivalent to those of the specimens was examined similarly as above.
Structure (SMILES),Hygroscopicity and solidification [1],Intrusion disruptive strength ([2]; dihydrate),Crystallinity ([3]; dihydrate),Intrusion disruptive strength [2],Crystallinity [3]
"O.O.OC[C@H]1O[C@H](O[C@H]2O[C@H](CO)[C@@H](O)[C@H](O)[C@H]2O)[C@H](O)[C@@H](O)[C@@H]1O [Example A-2, crystalline trehalose dihydrate]",insubstantial hygroscopicity and solidification,3.8 kg and 3.5 kg,84% and 83%,–,–
"O.O.OC[C@H]1O[C@H](O[C@H]2O[C@H](CO)[C@@H](O)[C@H](O)[C@H]2O)[C@H](O)[C@@H](O)[C@@H]1O [Example A-1, crystalline trehalose dihydrate]",do not substantially absorb moisture to be solidified,4.3 kg and 4.1 kg and 4.0 kg,84% and 83%,–,–
"OC[C@H]1O[C@@](CO)(O[C@H]2O[C@H](CO)[C@@H](O)[C@H](O)[C@H]2O)[C@@H](O)[C@@H]1O [Sugar crystal, reference compound]",–,–,–,9.9 kg and 10.0 kg,84% and 85%
